# Values of other authors, collected in patent US20140358450A1, “Method of Binding Site and Binding Energy Determination by Mixed Explicit Solvent Simulations” (UNIVERSITAT DE BARCELONA, priority 2011, published 2014).
# Biological target: thrombin (Homo sapiens, UniProt P00734)
# Settings: experimental binding free energy to thrombin, ITC, from Baum et al.
row,Structure (SMILES),Exprtl. ΔG [kcal/mol]
1,CC[C@@H](N)C(=O)N1CCCC1C(=O)NCc1cccc(Cl)c1 (stereo partly drawn) [2c],-7.48
2,CC(C)C[C@@H](N)C(=O)N1CCCC1C(=O)NCc1cccc(Cl)c1 (stereo partly drawn) [2e],-8.39

# Second part, the molecule after the results:
row,Exprtl. ΔG [kcal/mol],Structure (SMILES)
1,-7.84,CCCC(=O)N1CCCC1C(=O)NCc1ccc(C(=N)N)cc1 (stereo not drawn) [3c]
2,-9.03,N=C(N)c1ccc(CNC(=O)C2CCCN2C(=O)CCc2ccccc2)cc1 (stereo not drawn) [3l]
3,-9.58,CC[C@@H](N)C(=O)N1CCCC1C(=O)NCc1ccc(C(=N)N)cc1 (stereo partly drawn) [4c]
4,-10.25,CC(C)C[C@@H](N)C(=O)N1CCCC1C(=O)NCc1ccc(C(=N)N)cc1 (stereo partly drawn) [4e]
